Three compounds from patent US20060058351A1, “Novel ligands that modulate LXR-type receptors and cosmetic/pharmaceutical applications thereof” (GALDERMA RESEARCH & DEVELOPMENT, S.N.C., priority 2003, published 2006) can be followed below.

The structures appear in SMILES notation. pKd: −log10 of the molar value.

The target of the experiment is T1, LXRβ receptor (Gal-hLXRβ-DEF in HG5LN HeLa cells) (Homo sapiens, UniProt P55055).
T1 construct: stably transported with the Gal-hLXRβ-DEF plasmid; expressed in transfected cells; host or cells: HG5LN cells (HeLa stably transfected with the (17mer)5-bGlob-Luc reporter)
T1 sequence (P55055 222-460 limits assumed): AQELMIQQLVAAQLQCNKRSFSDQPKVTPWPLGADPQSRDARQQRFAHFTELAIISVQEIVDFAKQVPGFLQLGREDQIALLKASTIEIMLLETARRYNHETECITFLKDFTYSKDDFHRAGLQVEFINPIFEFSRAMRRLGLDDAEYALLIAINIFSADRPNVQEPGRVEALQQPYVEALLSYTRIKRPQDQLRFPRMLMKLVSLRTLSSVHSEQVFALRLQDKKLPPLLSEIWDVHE
Briefly: LXRβ transactivation test (luciferase reporter), determination of Kd apparent by crossover curves against a reference agonist. It counts as cell-based. The conditions noted are these: for KdR/KdA: ratio of KdR to KdA. As to the method: This activity on the LXRβ receptors is measured in the transactivation test and quantified by means of the dissociation constant Kdapp (apparent), as described in Example 3.
The activity of the LXRβ receptors is measured in a transactivation test. Activation of the receptors with an agonist (activator) in HeLa cells leads to the expression of a reporter gene, luciferase, which, in the presence of a substrate, generates light. The activation of the receptors may thus be measured by quantifying the luminescence produced after incubating the cells in the presence of a reference agonist. The antagonist products displace the agonist from its site, thus preventing activation of the receptor: there will thus be a reduction in the light produced, which may be quantified. The agonist products are tested alone and their effect is measured by measuring the activation of luminescence after incubation.
Determination of the Kdapp:
In this study, a constant that is the affinity of the molecule for the receptor is determined. Since this value can fluctuate depending on the basal activity and the expression of the receptor, it is known as the Kd apparent (KdApp).
To determine this constant, “crossover curves” of the test product against a reference agonist are produced in a 96-well plate: […] of the test product plus a concentration 0 (in the rows) and 7 concentrations of the agonist plus a 0 concentration (in the columns). This is 88 measurement points for one product and one receptor. The remaining 8 wells are used for the 100% control (total agonist) and 0% control (DMSO).
These crossover curves make it possible to determine the AC50 values (concentration at which 50% activation is observed) of the reference ligand at various concentrations of the test product. These AC50 values are used to calculate the Schild regression by plotting a straight line corresponding to the Schild equation (“quantitation in receptor pharmacology,” Terry P. Kenakin, Receptors and Channels, 2001, 7, 371-385).
In the case of an antagonist, an IC50 value (concentration inhibiting 50% of the activity) is calculated by plotting the curve of the product at the concentration of the reference ligand giving 80% activation.
The cell lines used are HG5LN cells, HeLa cells stably transfected with the (17mer)5-bGlob-Luc reporter and also stably […] with the Gal-hLXRβ-DEF plasmid. These cells are inoculated into 96-well plates at a rate of 10 000 cells per well in 100 μl of DMEM medium free of phenol red and supplemented with 10% defatted calf serum. The plates are then incubated at 37° C. and 7% CO2 for 4 hours.
The various dilutions of the test products, of the reference ligand and of the 100% control (N-(2,2,2-trifluoroethyl)-N-[4-(trifluorohydroxy-trifluoromethylethyl)phenyl]benzenesulfonamide) and of the 0% control (0.2% dimethyl sulfoxide) are added at a rate of 5 μl per well. The plates are then incubated for 18 hours at 37° C. and 7% CO2.
The culture medium is removed by turning over and 100 μl of a 1:1 PBS/luciferine mixture are added to each well. After 5 minutes, the plates are read using a luminescence detector.
Background: A reporter such as luciferase makes a cellular process visible.

[1] abbreviates: KdA, Affinity for the LXRβ receptor, HG5LN HeLa cells, Gal-hLXRβ-DEF, luciferase.
Setting [2] is: KdApp, apparent dissociation constant, Schild regression, LXRβ receptor.
Where [3] appears, read: KdR, Affinity for the LXRβ receptor, HG5LN HeLa cells, Gal-hLXRβ-DEF, luciferase.

In the case of `CC(=O)C1(c2ccccc2)CCN(C(=O)CNC(=O)c2ccc(C3CCCCC3)cc2)CC1` [Compound 18, N-[2-(4-acetyl-4-phenylpiperidin-1-yl)-2-oxoethyl]-4-cyclohexylbenzamide], the KdR/KdA stood at 4. In addition, the pKd under setting [1] was 6.30. For the same compound, the pKd under setting [2] was 5.70. Further, the pKd under setting [3] is 5.70.
As for `CCCC(=O)C1(c2ccccc2)CCN(C(=O)C(C)(C)Oc2ccccc2Cl)CC1` [Compound 47, 1-{1-[2-(2-chlorophenoxy)-2-methylpropionyl]4-phenylpiperidin-4-yl}butan-1-one], the KdR/KdA is 0.1. Also, the pKd under setting [1] was 4.70. Moreover, the pKd under setting [2] is 5.70. Further, the pKd under setting [3] was 5.70.
In the case of `CCCC(=O)C1(c2ccccc2)CCN(C(=O)CNC(=O)c2ccc(C3CCCCC3)cc2)CC1` [Compound 54, N-[2-(4-butyryl-4-phenylpiperidin-1-yl)-2-oxoethyl]-4-cyclohexylbenzamide], the KdR/KdA is listed as 4. Besides, the negative logarithm of the Kd (pKd) under setting [1] was 6.30. The pKd under setting [2] is 5.70. Moreover, the negative-log Kd (pKd) under setting [3] was 5.70.

Broadly, the pKd is −log10 of the Kd, conventionally taken in molar units.
